Measurements as given in patent publication US20240374734A1, “Immunomodulatory Combinations of Antigen and Drug-Lipid Conjugate” (Integrated Nanotherapeutics Inc., priority 2021, published 2024).
Like-named read-outs stand apart in the source and are kept apart here.

Assays:
[1] = Characterisation of prodrug LNP: particle size, PdI, prodrug entrapment; format: physicochemical; details: for % Entrap (Dex/Calcitriol): Calcitriol: Table 2, calcitriol prodrug; for PdI / Size: Table 2, prodrug LNP
Description: Lipid conjugates (prodrugs) were dissolved in ethanol, isopropanol, DMSO or THF. LNP were prepared by rapidly mixing DSPC or DMPC, cholesterol, prodrugs, and PEG-DSPE (in a molar ratio of 49/40/10/1) with phosphate-buffered saline (PBS) using a cross-junction mixer. Formulations were dialyzed against PBS to remove residual ethanol. In cases where a peptide antigen, such as ovalbumin peptide […] (OVA), was co-formulated within the LNP, the peptide is dissolved in PBS and rapidly mixed with the lipid phase. Dialysis or tangential flow filtration was used to remove all unentrapped peptide.
(§1) The physiochemical properties of the LNPs prepared as described above were subsequently characterized. Particle size was determined by dynamic light scattering using a Malvern Zetasizer Nano ZS (Malvern, UK) following buffer exchange into phosphate-buffered saline. Number-weighted size and distribution data was used. Lipid concentrations were determined by measuring total cholesterol using the Cholesterol E enzymatic assay kit from Wako Chemicals USA (Richmond, VA). mRNA entrapment was determined using a modified Quanti-iT Ribogreen assay (ThermoFisher, Waltham, MA). LNP-mRNA systems were incubated in the presence or absence of 1% Triton X-100 (Sigma-Aldrich, St. Louis, MO). Fluorescence intensities (Ex/Em: 480/520 nm) were compare to determine % mRNA entrapment.

[2] = Characterisation of LNP co-loaded with mRNA and prodrugs: Z-Ave, PDI, mRNA and prodrug entrapment; format: physicochemical
Description: To prepare LNPs that contain mRNA that codes for the antigen, ionizable lipid such as INT-A002 (see page 32 of co-owned WO 2021/026647; Application No. PCT/CA2020/051098, which is incorporated herein by reference), DSPC, cholesterol and PEG-DMG were dissolved in ethanol. Prodrugs were dissolved in ethanol, isopropanol, DMSO or THF. The mRNA was dissolved in 10 mM citrate or 25 mM acetate buffer at pH 4.0. LNP were prepared by rapidly mixing the lipid components in ethanol (in molar ratio of 45/8.5/35/1.5/10 of INT-A002/DSPC/chol/PEG-DMG/prodrugs) with nucleic acids in aqueous buffer at a volumetric flow rate ratio of 1:3 (ethanol to aqueous, combined flow rate 28 ml/min) at room temperature. The product was then dialyzed against 1× phosphate-buffered saline (PBS) at pH 7.4 for 24 hours to remove residual ethanol and to raise the pH.
as §1

[3] = Retention of lipid conjugate (prodrug) in LNP after incubation in human plasma; details: 2 hours incubation in human plasma; DSPC/Chol/Prodrug/DSPE-PEG LNP
[4] = tested on: Ova specific CD4+ T cells (OT-II T cells); assay: OT-II CD4+ T cell proliferation after BMDC co-treatment with LNP-mRNA and prodrug-LNP; format: cell-based, mice; details: BMDCs treated 48 hours with LNP-mRNA only or LNP-mRNA and separate prodrug LNP
Description: The mRNA used in this example is modified to minimize immune stimulation and encodes for full length Ovalbumin (Ova) protein (Trilink, L-7210). Bone marrow-derived dendritic cells (BMDCs) were prepared as previously described and co-cultured with isolated CD4+ T cells (OT-II T cells) that specifically recognize the Ova323-339 epitope loaded in H-2b MHC Class II (C57BL/6 haplotype). Proliferation was assessed based on CFSE dilution by flow cytometry. BMDCs pulsed for 4 hours with free Ova323-339 peptide (0.1 μg/mL) served as an antigen-loaded control (Free Ova Peptide), and untreated BMDCs served as the No Antigen control. 48 hours prior to co-culturing, BMDCs were treated with LNP-mRNA only or LNP-mRNA and LNP containing dexamethasone (D034) or calcitriol (D053) prodrugs.

[5] = tested on: CD4+ T cells from OT-II mice; assay: Antigen-specific OT-II CD4+ T cell proliferation with OVA peptide and prodrug-treated BMDCs; format: cell-based; details: BMDCs pre-treated with prodrug LNP, pulsed with free OVA peptide
Source text: CD4 T cells were collected from OT-II mice. These mice have T cell receptors on CD4+ T cells engineered to bind and react to Ovalbumin 323-339 peptide fragment (OVA) when presented on I-Ab MHC Class II. When APCs are loaded with OVA and mixed with these T cells, a robust proliferation of T cells is observed (akin to having an antigen-specific immune disorder).
For the antigen specific model, splenocytes were isolated from OT-II mice (B6.Cg-Tg (TcraTcrb) 425Cbn/J; Jackson Laboratories). CD4+ T cells were purified by CD4 positive selection (EasySep™ Mouse CD4+ T Cell Isolation Kit, Catalog #19852, Stem Cell Technologies) and labelled with 10 μM CFSE and plated in 96-well U bottom plates at a density of 100,000 cells/well. On the same day, prodrug treated C57BL/6 BMDCs (described above) were harvested, pulsed with/without OVA peptide, irradiated at 30 Gy, and co-cultured with the CD4+ cells for 3 days at T:DC ratios of 50:1, 10:1 and 5:1, in RPMI 1640 media (supplemented with 10% FBS, 10 mM HEPES, 50 μM β-mercaptoethanol, 10 mM sodium pyruvate, 1× GlutaMAX, and 1% Pen/Strep). Subsequently, cells were stained for viability (eBioscience Fixable Viability Dye eFlour780, cat #65-0865) and CD4 (eBioscience CD4 Monoclonal Antibody (RM4-5), cat #48-0042-82), and T cell proliferation was quantified via CFSE dilution by flow cytometry.

[6] = human, plasma, 2 h
[7] = Table 6, LNP-mRNA with lipid conjugate

In the case of `C=C1/C(=C\C=C2/CCC[C@]3(C)[C@@H]([C@H](C)CCCC(C)(C)O)CC[C@@H]23)C[C@@H](OC(=O)CCCCCCC/C=C\C[C@@H](CCCCCC)OC(=O)CCCCCCC/C=C\C/C=C\CCCCC)C[C@@H]1OC(=O)CCCCCCC/C=C\C[C@@H](CCCCCC)OC(=O)CCCCCCC/C=C\C/C=C\CCCCC` [Prodrug D087], the “% Entrap (Dex/Calcitriol): Calcitriol” value [1] is reported as “—/99%”, the PdI [1] is reported as 0.055 and the Size [1] is reported as 40 nm.
With “(1R,3S,Z)-3-hydroxy-5-(2-((1R,3aS,7aR,E)-1-((R)-6-hydroxy-6-methylheptan-2-yl)-7a-methyloctahydro-4H-inden-4-ylidene)ethylidene)-4-methylenecyclohexyl (R,Z)-12-acetoxyoctadec-9-enoate and (1S,5R,Z)-5-hydroxy-3-(2-((1R,3aS,7aR,E)-1-((R)-6-hydroxy-6-methylheptan-2-yl)-7a-methyloctahydro-4H-inden-4-ylidene)ethylidene)-2-methylenecyclohexyl (R,Z)-12-acetoxyoctadec-9-enoate [Prodrug D053]” the “% mRNA Entrap.” value [2, 7] was 97%, the PDI [2, 7] was 0.034 and the “Z-Ave (nm)” value ([2]; Table 6, LNP-mRNA with lipid conjugate (mol %)) was 69 nm. For the same molecule, the “lipid conjugate (prodrug) remaining in LNPs” value [3] was “stably retained”, the “T-cell proliferation (CFSE dilution)” value [4] was “suppressed” and the “T cell proliferation induced by OVA loaded BMDCs” value [5] was “significantly reduces”. For the same molecule, the “% Entrap (Dex/Calcitriol): Calcitriol” value [1] was “—/98%”, the PdI [1] was 0.070 and the Size [1] was 55 nm.
For `CCCCC/C=C\C/C=C\CCCCCCCC(=O)O[C@@H](C/C=C\CCCCCCCCOC(=O)CCC(=O)OCC(=O)[C@@]1(O)[C@H](C)C[C@H]2[C@@H]3CCC4=CC(=O)C=C[C@]4(C)[C@@]3(F)[C@@H](O)C[C@@]21C)CCCCCC` [Prodrug D045, 2-((8S,9R,10S,11S,13S,14S,16R,17R)-9-fluoro-11,17-dihydroxy-10,13,16-trimethyl-3-oxo-6,7,8,9,10,11,12,13,14,15,16,17-dodecahydro-3H-cyclopenta[a]phenanthren-17-yl)-2-oxoethyl ((R,Z)-12-(linoleoyloxy)octadec-9-en-1-yl) succinate], the “lipid conjugate (prodrug) remaining in LNPs” value [6] was “stably retained”.
